Reference: patent publication US20160130278A1 (TAISHO PHARMACEUTICAL CO., LTD, priority 2013, published 2016)

target: T1, human type 1 glycine transporter (GlyT1) (Homo sapiens, UniProt P48067); experiment: Glycine uptake inhibition experiment ([3H]glycine uptake); type: cell-based; settings: GlyT1
T1 construct: T98G cells (glioma cells) expressing human type 1 glycine transporter (GlyT1) were used
T1 sequence (P48067 1-706): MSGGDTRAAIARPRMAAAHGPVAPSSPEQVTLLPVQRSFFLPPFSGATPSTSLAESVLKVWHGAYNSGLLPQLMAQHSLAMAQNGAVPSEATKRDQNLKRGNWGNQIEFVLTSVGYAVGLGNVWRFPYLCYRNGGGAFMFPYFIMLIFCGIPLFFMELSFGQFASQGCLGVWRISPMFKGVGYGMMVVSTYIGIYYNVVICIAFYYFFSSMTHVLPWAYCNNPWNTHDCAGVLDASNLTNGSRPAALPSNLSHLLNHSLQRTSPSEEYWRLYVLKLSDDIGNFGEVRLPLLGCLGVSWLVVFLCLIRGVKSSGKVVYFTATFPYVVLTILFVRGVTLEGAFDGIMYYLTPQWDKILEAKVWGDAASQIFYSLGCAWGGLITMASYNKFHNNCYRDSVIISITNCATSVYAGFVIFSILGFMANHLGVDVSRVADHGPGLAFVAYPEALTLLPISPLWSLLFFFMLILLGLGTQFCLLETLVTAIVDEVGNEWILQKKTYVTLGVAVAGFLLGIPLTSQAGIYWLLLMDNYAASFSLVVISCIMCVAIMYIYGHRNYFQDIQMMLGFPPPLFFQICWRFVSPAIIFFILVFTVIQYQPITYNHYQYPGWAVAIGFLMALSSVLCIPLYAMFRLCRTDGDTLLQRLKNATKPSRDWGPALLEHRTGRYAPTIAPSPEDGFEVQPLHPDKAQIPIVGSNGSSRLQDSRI
Procedure, shortened: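 T98G glioma cells expressing human GlyT1 were pretreated 10 min with compound in HEPES buffer pH 7.4 (0.2% BSA), then incubated with compound plus 250 nM final [3H]glycine for 15 min at room temperature. Intracellular radioactivity was counted after NaOH lysis; 10 μM ALX5407 defined non-specific uptake. IC50 came from 10^−9–10^−5 M curves.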

Compared with `CCn1cc(-c2cccc(C(NC(=O)c3nccc4ccccc34)C3(O)CCCC3)c2)cn1` (centres unmarked) [Compound 22, N-{[3-(1-ethyl-1H-pyrazol-4-yl)phenyl](1-hydroxycyclopentyl)methyl}isoquinoline-1-carboxamide], `CCn1cc(-c2cccc(C(NC(=O)c3cccc4ccccc34)C3(O)CCC(F)(F)CC3)c2)cn1` (centres unmarked) [Compound 138, N-{(4,4-difluoro-1-hydroxycyclohexyl)[3-(1-ethyl-1H-pyrazol-4-yl)phenyl]methyl}naphthalene-1-carboxamide] is 7.6-fold higher in IC50: 110 nM for the first, 840 nM for the second. The first is the more potent here.

First: O=C(NC(c1cccc(F)c1)C1(O)CCCC1)c1nccc(C(F)(F)F)c1Cl (centres unmarked) [Compound 40, 3-chloro-N-[(3-fluorophenyl)(1-hydroxycyclopentyl)methyl]-4-(trifluoromethyl)pyridine-2-carboxamide]
Second: O=C(NC(c1cccc(Br)c1)C1(O)CCCC1)c1nccc(C(F)(F)F)c1Cl (centres unmarked) [Compound 31, N-[(3-bromophenyl)(1-hydroxycyclopentyl)metyl]-3-chloro-4-(trifluoromethyl)pyridine-2-carboxamide]
The IC50 of the first is 1.5-fold lower: 110 nM for the first, 170 nM for the second.

Compared with `O=C1CCC(O)(C(NC(=O)c2nccc(C(F)(F)F)c2Cl)c2cccc(Cl)c2)C1` (centres unmarked) [Compound 130, 3-chloro-N-[(3-chlorophenyl)(1-hydroxy-3-oxocyclopentyl)methyl]-4-(trifluoromethyl)pyridine-2-carboxamide], `O=C(N[C@@H](c1cccc(Cl)c1)[C@]1(O)CC[C@@H](F)CC1)c1nccc(C(F)(F)F)c1Cl` [Compound 162, 3-chloro-N-[(S)-(3-chlorophenyl)(cis-4-fluoro-1-hydroxycyclohexyl)methyl]-4-(trifluoromethyl)pyridine-2-carboxamide] is 17-fold lower in IC50: 1100 nM for the first, 65 nM for the second.

First: COc1ccccc1C(NC(=O)c1nccc(C(F)(F)F)c1Cl)C1(O)CCCC1 (centres unmarked) [Compound 50, 3-chloro-N-[(1-hydroxycyclopentyl)(2-methoxyphenyl)methyl]-4-(trifluoromethyl)pyridine-2-carboxamide]
Second: O=C(NC(c1ccccc1Cl)C1(O)CCC(F)(F)CC1)c1nccc(C(F)(F)F)c1Cl (single isomer, unassigned) [Compound 147, 3-chloro-N-[(2-chlorophenyl)(4,4-difluoro-1-hydroxycyclohexyl)methyl]-4-(trifluoromethyl)pyridine-2-carboxamide]
The IC50 of the first is 4.9-fold higher: 540 nM for the first, 110 nM for the second.

First: CCn1cc(-c2cccc(C(NC(=O)c3cccc(C(F)(F)F)c3Cl)C3(O)CCC(F)(F)CC3)c2)cn1 (single isomer, unassigned) [Compound 122, 2-chloro-N-{(4,4-difluoro-1-hydroxycyclohexyl)[3-(1-ethyl-1H-pyrazol-4-yl)phenyl]methyl}-3-(trifluoromethyl)benzamide]
Second: CCn1cc(-c2cccc(C(NC(=O)c3cc(Cl)ccc3C(F)(F)F)C3(O)CCC(F)(F)CC3)c2)cn1 (single isomer, unassigned) [Compound 217, 5-chloro-N-{(4,4-difluoro-1-hydroxycyclohexyl)[3-(1-ethyl-1H-pyrazol-4-yl)phenyl]methyl}-2-(trifluoromethyl)benzamide]
The IC50 of the first is 2.6-fold lower: 220 nM for the first, 580 nM for the second.

Going from `CCn1cc(-c2cccc(C(NC(=O)c3cccc(C(F)(F)F)c3Cl)C3(O)CCC(F)(F)CC3)c2)cn1` (single isomer, unassigned) [Compound 121, 2-chloro-N-{(4,4-difluoro-1-hydroxycyclohexyl)[3-(1-ethyl-1H-pyrazol-4-yl)phenyl]methyl}-3-(trifluoromethyl)benzamide] to `CCn1cc(-c2cccc(C(NC(=O)c3cccc(Cl)c3Cl)C3(O)CCC(F)(F)CC3)c2)cn1` (single isomer, unassigned) [Compound 145, 2,3-dichloro-N-{(4,4-difluoro-1-hydroxycyclohexyl)[3-(1-ethyl-1H-pyrazol-4-yl)phenyl]methyl}benzamide], the IC50 falls from 7400 nM to 670 nM (11-fold).

Compared with `O=C(NC(c1cccc(F)c1Cl)[C@]1(O)CC[C@@H](F)CC1)c1ccc(C(F)(F)F)nc1-n1nccn1` (single isomer, unassigned) [Compound 393, N-[(2-chloro-3-fluorophenyl)(cis-4-fluoro-1-hydroxycyclohexyl)methyl]-2-(2H-1,2,3-triazol-2-yl)-6-(trifluoromethyl)pyridine-3-carboxamide], `O=C(NC(c1cccc(F)c1Cl)[C@]1(O)CC[C@@H](F)CC1)c1cc(C(F)(F)F)ccc1-n1nccn1` (single isomer, unassigned) [Compound 381, N-[-(2-chloro-3-fluorophenyl)(cis-4-fluoro-1-hydroxycyclohexyl)methyl]-2-(2H-1,2,3-triazol-2-yl)-5-(trifluoromethyl)benzamide] is 30-fold higher in IC50: 40 nM for the first, 1200 nM for the second. The first is the more potent here.

First: O=C(NC(c1cccnc1Cl)C1(O)CCC(F)(F)CC1)c1cccc(C(F)(F)F)c1Cl (single isomer, unassigned) [Compound 357, 2-chloro-N-[(2-chloropyridin-3-yl)(4,4-difluoro-1-hydroxycyclohexyl)methyl]-3-(trifluoromethyl)benzamide]
Second: O=C(NC(c1cccnc1Cl)C1(O)CCC(F)(F)CC1)c1ccc(C(F)(F)F)nc1Cl (single isomer, unassigned) [Compound 344, 2-chloro-N-[(2-chloropyridin-3-yl)(4,4-difluroo-1-hydroxycyclohexyl)methyl]-6-(trifluoromethyl)pyridine-3-carboxamide]
The IC50 of the first is 7-fold lower: 330 nM for the first, 2300 nM for the second.

`Cc1ccc(-n2nccn2)c(C(=O)NC(c2cccc(F)c2Cl)[C@]2(O)CC[C@@H](F)CC2)n1` (single isomer, unassigned) [Compound 283, N-[(2-chloro-3-fluorophenyl)(cis-4-fluoro-1-hydroxycyclohexyl)methyl]-6-methyl-3-(2H-1,2,3-triazol-2-yl)pyridine-2-carboxamide] and `O=C(NC(c1cccc(F)c1Cl)[C@]1(O)CC[C@@H](F)CC1)c1nsc(Cl)c1Cl` (single isomer, unassigned) [Compound 271, 4,5-dichloro-N-[(2-chloro-3-fluorophenyl)(cis-4-fluoro-1-hydroxycyclohexyl)methyl]-1,2-thiazol-3-carboxamide] are the same in IC50: 1100 nM for the first, 1100 nM for the second.

First: CCn1cc(-c2cccc(C(NC(=O)c3cc(C(F)(F)F)ccc3C)C3(O)CCC(F)(F)CC3)c2)cn1 (centres unmarked) [Compound 179, N-{(4,4-difluoro-1-hydroxycyclohexyl)[3-(1-ethyl-1H-pyrazol-4-yl)phenyl]methyl}-2-methyl-5-(trifluoromethyl)benzamide]
Second: CCn1cc(-c2cccc(C(NC(=O)c3ccc(F)cc3C(F)(F)F)C3(O)CCC(F)(F)CC3)c2)cn1 (single isomer, unassigned) [Compound 215, N-{(4,4-difluoro-1-hydroxycyclohexyl)[3-(1-ethyl-1H-pyrazol-4-yl)phenyl]methyl}-4-fluoro-2-(trifluoromethyl)benzamide]
The IC50 of the first is 2.9-fold higher: 610 nM for the first, 210 nM for the second.

Going from `O=C(NC(c1cccnc1Cl)[C@]1(O)CC[C@@H](F)CC1)c1cc(C(F)(F)F)ncc1Cl` (single isomer, unassigned) [Compound 323, 5-chloro-N-[(2-chloropyridin-3-yl)(cis-4-fluoro-1-hydroxycyclohexyl)methyl]-2-(trifluoromethyl)pyridine-4-carboxamide] to `O=C(NC(c1cc(Cl)ccc1F)[C@]1(O)CC[C@@H](F)CC1)c1cc(C(F)(F)F)ncc1Cl` (single isomer, unassigned) [Compound 377, 5-chloro-N-[(5-chloro-2-fluorophenyl)(cis-4-fluoro-1-hydroxycyclohexyl)methyl]-2-(trifluoromethyl)pyridine-4-carboxamide], the IC50 rises from 200 nM to 920 nM (4.6-fold). The first is the more potent here.

Going from `O=C(NC(c1cccc(F)c1Cl)[C@]1(O)CC[C@@H](F)CC1)c1cc(C(F)(F)F)cnc1Cl` (single isomer, unassigned) [Compound 317, 2-chloro-N-[(2-chloro-3-fluorophenyl)(cis-4-fluoro-1-hydroxycyclohexyl)methyl]-5-(trifluoromethyl)pyridine-3-carboxamide] to `CCn1cc(-c2cccc(C(NC(=O)c3cccc(C(F)(F)F)c3Cl)C3(O)CCCCC3)c2)cn1` (centres unmarked) [Compound 16, 2-chloro-N-{[3-(1-ethyl-1H-pyrazol-4-yl)phenyl](1-hydroxycyclohexyl)methyl}-3-(trifluoromethyl)benzamide], the IC50 falls from 150 nM to 44 nM (3.4-fold). The second is the more potent here.

With `CCn1cc(-c2cccc(C(NC(=O)c3cccc4ccccc34)C3(O)CCC(F)(F)CC3)c2)cn1` (single isomer, unassigned) [Compound 196, N-{(4,4-difluoro-1-hydroxycyclohexyl)[3-(1-ethyl-1H-pyrazol-4-yl)phenyl]methyl}naphthalene-1-carboxamide] the IC50 was 290 nM.

same assay, conditions: human GlyT1

In the case of `CS(=O)(=O)c1cc(C(F)(F)F)ccc1C(=O)NC(c1cccc(Cl)c1F)C1(O)CCC(F)(F)CC1` (single isomer, unassigned) [Compound 402, N-[(3-chloro-2-fluorophenyl)(4,4-difluoro-1-hydroxycyclohexyl)methyl]-2-(methylsulfonyl)-4-(trifluoromethyl)benzamide], the IC50 is reported as 450 nM.
